Reference: patent publication US20080318938A1, “METHODS FOR TREATING ABERRANT CELL PROLIFERATION DISORDERS” (priority 2007, published 2008)

What was measured:
Neurokinin NK2 receptor = Neurokinin NK2 receptor (Homo sapiens, UniProt P21452); assay: Receptor binding
[1] = target: CCKA/CCK1 Cholecystokinin receptor (Homo sapiens, UniProt P32238); assay: Receptor binding
Procedure: (§1) The binding IC50, functional effect, and functional EC50 of TA1-1B on exemplary receptors was determined.

SST1 [2] = target: T1, SST1 (Homo sapiens, UniProt P30872); assay: Receptor binding
T1 sequence (P30872 whole entry, species assumed): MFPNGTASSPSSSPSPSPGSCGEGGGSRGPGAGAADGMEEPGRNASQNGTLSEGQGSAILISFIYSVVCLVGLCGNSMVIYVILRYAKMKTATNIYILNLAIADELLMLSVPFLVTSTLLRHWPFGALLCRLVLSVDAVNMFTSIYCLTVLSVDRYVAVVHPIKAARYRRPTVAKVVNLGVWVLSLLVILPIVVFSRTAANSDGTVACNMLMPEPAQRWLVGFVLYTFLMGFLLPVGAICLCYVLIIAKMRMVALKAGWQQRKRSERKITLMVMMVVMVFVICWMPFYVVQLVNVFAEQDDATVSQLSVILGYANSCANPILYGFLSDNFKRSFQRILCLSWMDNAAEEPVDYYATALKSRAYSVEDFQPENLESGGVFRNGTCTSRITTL
Procedure: as §1

SST4 [3] = target: T2, SST4 (Homo sapiens, UniProt P31391); assay: Receptor binding
T2 sequence (P31391 whole entry, species assumed): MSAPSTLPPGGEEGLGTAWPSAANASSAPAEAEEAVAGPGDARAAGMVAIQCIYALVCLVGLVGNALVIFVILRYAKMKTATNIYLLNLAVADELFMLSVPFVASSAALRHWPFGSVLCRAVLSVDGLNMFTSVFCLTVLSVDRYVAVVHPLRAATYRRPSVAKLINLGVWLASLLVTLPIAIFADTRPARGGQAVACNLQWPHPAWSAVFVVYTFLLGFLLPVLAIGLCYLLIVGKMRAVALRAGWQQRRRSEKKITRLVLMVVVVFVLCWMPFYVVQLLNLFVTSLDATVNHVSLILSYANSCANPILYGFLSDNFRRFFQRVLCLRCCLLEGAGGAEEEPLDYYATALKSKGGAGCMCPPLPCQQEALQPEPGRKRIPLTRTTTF
Procedure: as §1

SST5 [4] = target: T3, SST5 (Homo sapiens, UniProt P35346); assay: Receptor binding
T3 sequence (P35346 whole entry, species assumed): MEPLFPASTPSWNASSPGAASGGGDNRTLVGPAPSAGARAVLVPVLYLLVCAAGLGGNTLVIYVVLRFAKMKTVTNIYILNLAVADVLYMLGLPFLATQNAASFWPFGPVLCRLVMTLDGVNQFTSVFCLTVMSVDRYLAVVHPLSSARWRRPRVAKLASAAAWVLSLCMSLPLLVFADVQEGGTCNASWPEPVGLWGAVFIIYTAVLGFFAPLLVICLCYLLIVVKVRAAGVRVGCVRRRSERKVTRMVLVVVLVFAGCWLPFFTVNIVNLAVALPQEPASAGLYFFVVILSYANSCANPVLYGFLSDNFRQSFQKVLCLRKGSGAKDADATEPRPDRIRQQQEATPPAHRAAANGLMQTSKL
Procedure: as §1

[5] = tested on: κ-opioid (KOP) opioid receptor; assay: Receptor binding
CCK1/CCKA = target: T4, CCK1/CCKA (Homo sapiens, UniProt P32238); assay: Receptor functional assay; type: biochemical
T4 sequence (P32238 1-428): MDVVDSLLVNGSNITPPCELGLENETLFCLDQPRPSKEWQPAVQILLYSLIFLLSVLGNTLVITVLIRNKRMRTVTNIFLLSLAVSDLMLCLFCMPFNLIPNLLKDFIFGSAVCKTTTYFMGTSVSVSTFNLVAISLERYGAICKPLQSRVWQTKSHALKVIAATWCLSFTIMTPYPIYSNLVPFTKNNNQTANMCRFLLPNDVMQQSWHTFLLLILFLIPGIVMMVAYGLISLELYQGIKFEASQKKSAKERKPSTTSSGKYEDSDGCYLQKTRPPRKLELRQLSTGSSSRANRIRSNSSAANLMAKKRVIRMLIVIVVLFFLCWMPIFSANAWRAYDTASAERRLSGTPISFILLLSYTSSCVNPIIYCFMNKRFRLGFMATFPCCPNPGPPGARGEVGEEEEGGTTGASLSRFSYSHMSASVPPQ
Procedure: as §1

CCK2/CCKB = target: T5, CCK2/CCKB (Homo sapiens, UniProt P32239); assay: Receptor functional assay; type: biochemical
T5 sequence (P32239 1-447): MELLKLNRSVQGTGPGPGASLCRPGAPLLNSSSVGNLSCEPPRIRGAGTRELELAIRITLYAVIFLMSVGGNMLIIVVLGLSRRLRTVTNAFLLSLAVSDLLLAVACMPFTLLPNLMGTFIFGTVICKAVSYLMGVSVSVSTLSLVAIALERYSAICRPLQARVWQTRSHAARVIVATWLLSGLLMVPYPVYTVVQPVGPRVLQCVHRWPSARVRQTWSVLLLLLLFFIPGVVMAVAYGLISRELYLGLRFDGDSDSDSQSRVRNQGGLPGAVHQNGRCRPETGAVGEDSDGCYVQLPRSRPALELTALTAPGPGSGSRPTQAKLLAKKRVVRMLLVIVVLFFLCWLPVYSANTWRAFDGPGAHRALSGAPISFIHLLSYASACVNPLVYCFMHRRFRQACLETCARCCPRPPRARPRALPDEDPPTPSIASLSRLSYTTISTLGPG
Procedure: as §1

SST1 [6] = target: T1, SST1; assay: Receptor functional assay; type: biochemical
Procedure: as §1

SST4 [7] = target: T2, SST4; assay: Receptor functional assay; type: biochemical
Procedure: as §1

SST5 [8] = target: T3, SST5; assay: Receptor functional assay; type: biochemical
Procedure: as §1

bone marrow cells (BMCs) = assay: RNA synthesis and cell viability of bone marrow cells from treated rats; type: in vivo; settings: 10 mg/kg daily for 5 days, BMCs isolated 24 hours after last dose
Procedure: Rats were treated with 10 milligrams per kilogram of Compound TA1-1B daily for five (5) days. Twenty-four (24) hours after the last dose the bone marrow was isolated, and bone marrow cells (BMCs) were tested for RNA synthesis activity and cell viability
The following process was utilized to measure total RNA synthesis. For animals treated with compound TA1-1B, BMCs were isolated and plated overnight at 100,000 cells per mL. Next day cells were incubated for one hour with 5 μCi of [^3H]-uridine. To measure total RNA synthesis, total RNA from treated cells was isolated with a RNease kit (QIAGEN), levels of total RNA were assessed with Ribogreen reagent (Invitrogen) and the newly synthesized tritiated RNA was measured in a scintillation Counter (Perkin Elmer) in a tritium channel.
The following process was utilized to measure cell viability, which involves the use of an Alamar Blue dye. Cells are counted using a hemocytometer, and 4,000-5,000 cells (per well) in 100 microliter of medium are seeded into wells 96-well plate. […] Fluorescence is recorded at an excitation wavelength of 544 nm and emission wavelength of 590 nm using a microplate reader. Fluorescence of […] dye is detected and effects of drug treatment on BMC viablity is determined.

[9] = Distribution in human whole blood fractions (LC-MS/MS); type: in vitro ADME
Procedure: Twenty five mL healthy donor whole blood was collected in the presence of heparin. Human whole blood was added with Compound TA1-1B to reach final concentration of 3 uM. Whole blood was gently mized and incubated at 37° C. for 4 hrs. At the end of the incubation 0.5 mL blood was collected and centrifuge at 500×g to separate the platelet-rich plasma for further analysis.
In order to isolate white blood cells, 5 ml of treated blood was subjected to Ficoll density gradient centrifugation. At the end of the centrifugation formed buffy coat containing most of the white blood cells and Ficolle fractions containing red blood cells and granulocites were collected separately. Obtained white cell fraction was washed with 5 ml of isotonic phosphate buffer and saved for further analysis. Obtained fractions were subjected to Compound TA1-1B quantitative analysis using LC-MS/MS. Fractions obtained from untreated whole blood were used as corresponding biological matrices in LC-MS/MS based bioanalysis.
The most part of added compound (93.7%) was found in blood formed elements than in plasma indicating to a potentially high volume of distribution and good tissue penetration of compound TA1-1B.

[10] = 3 uM, 37° C., 4 hrs, White cells

Sequence of Neurokinin NK2 receptor (P21452 whole entry): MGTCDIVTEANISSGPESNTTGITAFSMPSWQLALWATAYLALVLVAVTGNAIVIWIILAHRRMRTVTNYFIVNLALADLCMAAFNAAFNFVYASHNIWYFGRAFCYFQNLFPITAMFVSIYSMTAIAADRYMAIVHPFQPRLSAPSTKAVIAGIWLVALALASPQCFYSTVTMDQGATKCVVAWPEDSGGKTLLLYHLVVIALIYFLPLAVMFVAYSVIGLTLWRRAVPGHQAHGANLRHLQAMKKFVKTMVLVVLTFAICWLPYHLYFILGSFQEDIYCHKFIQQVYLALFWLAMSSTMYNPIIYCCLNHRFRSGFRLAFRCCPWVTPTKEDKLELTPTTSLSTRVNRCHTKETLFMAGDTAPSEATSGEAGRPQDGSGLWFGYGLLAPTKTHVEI

CN1CCC[C@H]1CCNC(=O)c1cn2c3c(c(N4CCC(c5cnccn5)C4)c(F)cc3c1=O)Oc1cc3ccccc3cc1-2 (stereo partly drawn) [TA1-1B] showed an inhibition at 1 µM (Neurokinin NK2 receptor) of 107%, an IC50 ([1]; CCK1/CCKA) of 640 nM and an inhibition at 1 µM ([1]; CCKA/CCK1, 1 uM) of 64%. The IC50 (SST1 [2]) was 2800 nM, the IC50 (SST4 [3]) was greater than 10 µM and the IC50 (SST5 [4]) was greater than 10 µM. The “% inhibition @ 1 uM” value [5] was 52%, the EC50 (CCK1/CCKA; antagonist) was 1600 nM and the Kb (CCK1/CCKA; antagonist) was 340 nM. For the same molecule, the “Functional Effect” value (CCK1/CCKA; response noted at 1 μM) was “Antagonist”, the EC50 (CCK2/CCKB; antagonist) was 9 µM and the Kb (CCK2/CCKB; antagonist) was 400 nM. For the same molecule, the “Functional Effect” value (CCK2/CCKB; response noted at 10 μM) was “Antagonist”, the EC50 (SST1 [6]; agonist) was 4.3 µM and the “Functional Effect” value (SST1 [6]; response noted at 10 μM) was “Agonist”. For the same molecule, the EC50 (SST4 [7]; agonist) was 9.9 µM, the “Functional Effect” value (SST4 [7]; response noted at 10 μM) was “Agonist” and the EC50 (SST5 [8]; agonist) was 4.7 µM. For the same molecule, the “Functional Effect” value (SST5 [8]; response noted at 10 μM) was “Agonist”, the “Toxicity to bone marrow cells (RNA synthesis and cell viability)” value (bone marrow cells (BMCs)) was “not toxic” and the “Mass balance Amount” value ([9]; 3 uM added, 5 mL) was 14.7 nmol. For the same molecule, the “Mass balance Conc.” value ([9]; 3 uM added, 5 mL) was 2.95 µM, the “% of compound in plasma fraction” value ([9]; 3 uM, 37° C., 4 hrs, Plasma) was 6.2% and the “Amount in plasma fraction” value ([9]; 3 uM, 37° C., 4 hrs, Plasma) was 0.92 nmol. The “Conc. in plasma fraction” value ([9]; 3 uM, 37° C., 4 hrs, Plasma) was 0.37 µM, the “% of compound in red cells fraction” value ([9]; 3 uM, 37° C., 4 hrs, Red cells) was 81.5% and the “Amount in red cells fraction” value ([9]; 3 uM, 37° C., 4 hrs, Red cells) was 12.0 nmol. The “Conc. in red cells fraction” value ([9]; 3 uM, 37° C., 4 hrs, Red cells) was 4.85 µM, the “Total amount in all fractions” value ([9]; 3 uM, 37° C., 4 hrs, Total) was 14.7 nmol and the “% of compound in white cells fraction” value [9, 10] was 12.2%. For the same molecule, the “Amount in white cells fraction” value [9, 10] was 1.8 nmol, the “Conc. in white cells fraction” value [9, 10] was 81.79 µM and the “Part of added compound found in blood formed elements” value ([9]; 3 uM, 37° C., 4 hrs, red and white cells versus plasma) was 93.7%.
